Data set [1] relates to CD31. The data set is described as follows: Expression level of CD31 by immunohistochemical analysis of cancer cell. The format is in vivo, mice. As to conditions: cancer tissue after dosing voacangine or sunitinib; FIGS. 14 and 15. As for the experimental part: Immunohistochemical analysis was performed to find an effect of voacangine against pathological angiogenesis of a cancer cell.
CD31 or Platelet Endothelial Cell Adhesion Molecule-1 (PECAM-1) are known as being expressed on the surface of a hematoblast such as platelet and naive T cell, natural killer cell, granulocyte, monocyte and cell-to-cell junction of endothelial as transmembrane glycoprotein of 130 kDa type belonging to immunoglobulin super-family.

For data set [2], the system named is HIF-1α. The data set is described as follows: Expression level of HIF-1α. As to conditions: earlier finding of the inventors.
Data set [3] relates to VEGF. The data set is described as follows: Expression level of VEGF, target gene of HIF-1α. As to conditions: earlier finding of the inventors.
The test system of data set [4] is U87MG. The data set is described as follows: Variation of cancer size in U87MG cancer-diseased animal model. As to conditions: U87MG xenograft mice; voacangine 10 mg/kg i.p. every day for 12 days; compared with vehicle and sunitinib 40 mg/kg p.o.; FIG. 4.
Protocol: A cell strain U87MG, which is a kind of human glioglastoma multiforme purchased from American Type Culture Collection (ATCC), was cultivated in a medium to which Phosphate-Buffered Saline (PBS): Matrigel (1:1) is added.
The cultivated cell strain U87MG of 5×10^6 was merged with PBS:Matrigel (1:1) of 100 μl and the mixture was injected into athymic nude mice for two weeks to induce growth of a cancer cell.
A short description of data set [5]: Voacangine distribution in tumors, livers and kidneys by MALDI imaging mass spectrometry. It is filed as in vivo, mice. As to conditions: four hours after treating voacangine, FIG. 5. The text has this:
After surgically removing tumors, livers, and kidneys from mouse models after four hours after treating voacangine in Embodiment 3, a specimen was manufactured to perform MALDI mass spectrometry and immunofluorescence with H&E straining and the result was shown in FIG. 5.

The subject of data set [6] is capsaicin-induced contraction. As to conditions: isolated mouse rectum; J. Nat. Med. 65 (2011) 157-165; cited from earlier work.
Data set [7] concerns Human Umbilical Vascular Endothelial Cell (HUVEC). The data set is described as follows: In vitro and in vivo angiogenesis inhibition (cell-based HUVEC screening). As to conditions: nontoxic dose, earlier finding of the inventors. An excerpt:
The inventors screened 300 crude extracts which are taken from a natural plant that is effective in proliferating Human Umbilical Vascular Endothelial Cell (HUVEC) by using a cell-based screening technique.

For `CCN(CC)CCNC(=O)c1c(C)[nH]c(/C=C2\C(=O)Nc3ccc(F)cc32)c1C` [sunitinib, Sunitinib malate, reference compound], the CD31 expression result in data set [1] is recorded as “greatly reduced in expression”.
In the case of `CC[C@H]1C[C@@H]2C[N@]3CCc4c([nH]c5ccc(OC)cc45)[C@](C(=O)OC)(C2)C13` [voacangine], the “expression level of HIF-1α” value in data set [2] is “dose-dependently inhibited”. Besides, in data set [3], the “expression level of VEGF” value is on record as “dose-dependently inhibited”. For the same compound, the CD31 expression entry in data set [1] is given as “greatly reduced in expression”. The “cancer size after dosage” value in data set [4] is “greatly reduced”. For the same compound, in data set [5], the “localization of voacangine in livers, kidneys and cancer cells” value was “more concentrated in the cancer cells than the livers and kidneys”. In addition, the capsaicin-induced contraction entry in data set [6] is on record as “dose-dependently inhibiting”. For the same compound, the angiogenesis inhibition result in data set [7] was “inhibiting in vitro and in vivo angiogenesis by a nontoxic dose”.

Source of the values: patent US10591487B2, “Small molecule detection and localization method based on MALDI imaging mass spectrometry” (INDUSTRY-ACADEMIC COOPERATION FOUNDATION, YONSEI UNIVERSITY, priority 2015, dated 2020).
